Consider six compounds from ChEMBL document CHEMBL5705888, “Substrate specificity and inhibitors of LRRK2, a protein kinase mutated in Parkinson's disease” (Biochem J, 2009).

Assay [1] deals with Insulin receptor-related protein (Homo sapiens) (UniProt P14616). Description: Inhibition of IRR (unknown origin) at 10 uM incubated for 30 mins in presence of [gamma-33P]ATP by multidrop micro reagent based assay relative to control.
The species named for assay [2] is Homo sapiens. The experiment in a line: Residual activity of VEGFR (unknown origin) at 10 uM incubated for 30 mins in presence of [gamma-33P]ATP by multidrop micro reagent based assay relative to control.
In assay [3] the target is Proto-oncogene tyrosine-protein kinase Src (Homo sapiens) (UniProt P12931). The experiment in a line: Inhibition of Src (unknown origin) at 10 uM incubated for 30 mins in presence of [gamma-33P]ATP by multidrop micro reagent based assay relative to control; values are per cent of control.
Assay [4] concerns the target T1, Serine/threonine-protein kinase TBK1 (Homo sapiens) (UniProt Q9UHD2).
T1 sequence (whole entry): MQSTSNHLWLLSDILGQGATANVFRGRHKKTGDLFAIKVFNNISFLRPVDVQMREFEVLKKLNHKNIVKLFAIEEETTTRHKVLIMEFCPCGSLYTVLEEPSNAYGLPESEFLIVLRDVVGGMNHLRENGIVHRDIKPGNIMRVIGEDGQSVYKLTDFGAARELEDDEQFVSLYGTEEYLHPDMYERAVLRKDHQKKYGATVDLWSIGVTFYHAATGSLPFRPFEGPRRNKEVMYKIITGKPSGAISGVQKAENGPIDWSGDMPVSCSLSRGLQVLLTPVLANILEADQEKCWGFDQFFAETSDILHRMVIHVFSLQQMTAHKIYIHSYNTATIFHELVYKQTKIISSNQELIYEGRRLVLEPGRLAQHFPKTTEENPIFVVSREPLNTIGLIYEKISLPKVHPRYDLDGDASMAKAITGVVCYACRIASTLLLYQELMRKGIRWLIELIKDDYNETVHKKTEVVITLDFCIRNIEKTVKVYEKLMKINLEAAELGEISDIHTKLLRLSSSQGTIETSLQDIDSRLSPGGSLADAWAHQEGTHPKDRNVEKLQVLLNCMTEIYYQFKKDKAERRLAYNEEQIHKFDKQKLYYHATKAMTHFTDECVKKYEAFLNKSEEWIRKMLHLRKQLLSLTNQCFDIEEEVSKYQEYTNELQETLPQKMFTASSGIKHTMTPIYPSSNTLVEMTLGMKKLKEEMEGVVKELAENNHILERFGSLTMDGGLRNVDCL
Description: Inhibition of TBK1 (unknown origin) at 10 uM incubated for 30 mins in presence of [gamma-33P]ATP by multidrop micro reagent based assay relative to control; values are per cent of control.

Assay [5] deals with Homeodomain-interacting protein kinase 2 (Homo sapiens) (UniProt Q9H2X6). Description: Inhibition of HIPK2 (unknown origin) at 10 uM incubated for 30 mins in presence of [gamma-33P]ATP by multidrop micro reagent based assay relative to control; values are per cent of control.
In assay [6] the target is Aurora kinase B (Homo sapiens) (UniProt Q96GD4). The experiment in a line: Inhibition of Aurora B kinase (unknown origin) at 10 uM incubated for 30 mins in presence of [gamma-33P]ATP by multidrop micro reagent based assay relative to control; values are per cent of control.
Assay [7] addresses Insulin receptor-related protein (Homo sapiens) (UniProt P14616). The experiment in a line: Inhibition of IRR (unknown origin) at 1 uM incubated for 30 mins in presence of [gamma-33P]ATP by multidrop micro reagent based assay relative to control.
Assay [8] has as its target T2, Dual specificity protein kinase TTK (Homo sapiens) (UniProt P33981).
T2 sequence (whole entry): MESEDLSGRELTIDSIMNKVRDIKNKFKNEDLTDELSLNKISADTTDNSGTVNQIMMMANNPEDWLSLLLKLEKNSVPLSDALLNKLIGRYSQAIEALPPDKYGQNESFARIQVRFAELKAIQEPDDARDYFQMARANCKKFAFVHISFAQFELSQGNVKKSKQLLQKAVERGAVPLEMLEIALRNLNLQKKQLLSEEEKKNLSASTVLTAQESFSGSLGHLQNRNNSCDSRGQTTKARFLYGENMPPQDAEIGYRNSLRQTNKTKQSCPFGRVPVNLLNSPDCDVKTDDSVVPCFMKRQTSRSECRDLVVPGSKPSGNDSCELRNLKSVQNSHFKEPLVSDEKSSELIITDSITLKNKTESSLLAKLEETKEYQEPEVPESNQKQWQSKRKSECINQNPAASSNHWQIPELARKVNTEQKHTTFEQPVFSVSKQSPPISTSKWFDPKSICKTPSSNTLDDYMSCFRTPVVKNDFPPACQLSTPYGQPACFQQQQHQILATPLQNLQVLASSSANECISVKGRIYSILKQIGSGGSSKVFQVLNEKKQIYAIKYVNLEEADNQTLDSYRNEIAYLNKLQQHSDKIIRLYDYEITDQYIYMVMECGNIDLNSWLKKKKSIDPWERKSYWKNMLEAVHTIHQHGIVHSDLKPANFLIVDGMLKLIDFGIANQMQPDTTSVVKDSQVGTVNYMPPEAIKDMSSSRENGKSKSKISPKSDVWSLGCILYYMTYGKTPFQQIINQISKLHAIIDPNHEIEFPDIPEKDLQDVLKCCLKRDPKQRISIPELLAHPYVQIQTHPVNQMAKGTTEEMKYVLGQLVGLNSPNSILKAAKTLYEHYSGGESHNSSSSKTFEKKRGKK
Description: Inhibition of TTK (unknown origin) at 1 uM incubated for 30 mins in presence of [gamma-33P]ATP by multidrop micro reagent based assay relative to control; values are per cent of control.

Assay [9] is filed under the species Homo sapiens. Description: Inhibition of PHK (unknown origin) at 1 uM incubated for 30 mins in presence of [gamma-33P]ATP by multidrop micro reagent based assay relative to control; values are per cent of control.
The species named for assay [10] is Homo sapiens. The experiment in a line: Inhibition of VEGFR (unknown origin) at 1 uM incubated for 30 mins in presence of [gamma-33P]ATP by multidrop micro reagent based assay relative to control; values are per cent of control.

Insulin receptor-related protein (Homo sapiens), sequence (P14616 27-742 limits assumed): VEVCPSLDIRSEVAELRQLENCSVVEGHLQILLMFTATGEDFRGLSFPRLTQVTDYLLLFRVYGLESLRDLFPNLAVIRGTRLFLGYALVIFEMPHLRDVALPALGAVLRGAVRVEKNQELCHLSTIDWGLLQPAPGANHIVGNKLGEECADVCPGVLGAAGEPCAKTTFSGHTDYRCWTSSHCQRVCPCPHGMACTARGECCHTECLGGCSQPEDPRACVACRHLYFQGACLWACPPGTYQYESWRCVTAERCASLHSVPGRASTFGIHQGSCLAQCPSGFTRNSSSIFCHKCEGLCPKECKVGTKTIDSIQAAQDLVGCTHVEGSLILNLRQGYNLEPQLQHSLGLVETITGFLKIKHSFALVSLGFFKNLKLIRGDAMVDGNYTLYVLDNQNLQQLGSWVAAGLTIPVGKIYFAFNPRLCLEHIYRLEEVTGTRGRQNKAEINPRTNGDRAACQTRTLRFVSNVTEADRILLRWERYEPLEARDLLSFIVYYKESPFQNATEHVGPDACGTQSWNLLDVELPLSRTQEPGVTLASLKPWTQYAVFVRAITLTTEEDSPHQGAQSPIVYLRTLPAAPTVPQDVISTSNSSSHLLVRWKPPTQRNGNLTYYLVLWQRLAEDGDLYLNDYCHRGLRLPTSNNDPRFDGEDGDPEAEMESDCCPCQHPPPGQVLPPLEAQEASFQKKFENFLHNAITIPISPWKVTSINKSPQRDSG
Insulin receptor-related protein (Homo sapiens), sequence (P14616 747-1297 limits assumed): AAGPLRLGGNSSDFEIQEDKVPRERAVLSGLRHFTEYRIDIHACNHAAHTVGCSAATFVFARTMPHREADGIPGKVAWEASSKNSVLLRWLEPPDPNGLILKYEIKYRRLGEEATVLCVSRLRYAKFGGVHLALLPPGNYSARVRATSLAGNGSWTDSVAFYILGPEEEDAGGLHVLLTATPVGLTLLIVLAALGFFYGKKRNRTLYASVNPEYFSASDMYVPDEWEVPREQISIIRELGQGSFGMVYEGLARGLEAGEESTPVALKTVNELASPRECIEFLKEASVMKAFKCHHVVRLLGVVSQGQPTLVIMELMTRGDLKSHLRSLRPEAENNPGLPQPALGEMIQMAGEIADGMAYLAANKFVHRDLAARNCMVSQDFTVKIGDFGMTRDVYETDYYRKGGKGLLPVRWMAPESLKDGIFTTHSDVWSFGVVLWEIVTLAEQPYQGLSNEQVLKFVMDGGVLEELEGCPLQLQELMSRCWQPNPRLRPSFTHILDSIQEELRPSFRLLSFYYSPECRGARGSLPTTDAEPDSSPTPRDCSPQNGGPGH
Proto-oncogene tyrosine-protein kinase Src (Homo sapiens), sequence (P12931 2-536 limits assumed): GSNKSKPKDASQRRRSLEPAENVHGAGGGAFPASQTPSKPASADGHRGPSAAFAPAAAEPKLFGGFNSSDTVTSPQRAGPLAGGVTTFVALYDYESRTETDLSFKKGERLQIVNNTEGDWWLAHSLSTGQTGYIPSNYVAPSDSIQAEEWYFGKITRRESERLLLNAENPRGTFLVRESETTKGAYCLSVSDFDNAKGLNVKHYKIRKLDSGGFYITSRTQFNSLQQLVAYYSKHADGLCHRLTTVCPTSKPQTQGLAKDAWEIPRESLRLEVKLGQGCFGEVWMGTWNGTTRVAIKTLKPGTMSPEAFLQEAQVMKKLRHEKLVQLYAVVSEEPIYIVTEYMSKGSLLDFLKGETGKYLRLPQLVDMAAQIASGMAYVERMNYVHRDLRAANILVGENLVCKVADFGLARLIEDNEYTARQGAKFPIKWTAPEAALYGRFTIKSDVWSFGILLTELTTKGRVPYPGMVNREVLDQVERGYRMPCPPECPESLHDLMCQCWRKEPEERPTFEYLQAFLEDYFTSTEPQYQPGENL
Aurora kinase B (Homo sapiens), sequence (Q96GD4 whole entry): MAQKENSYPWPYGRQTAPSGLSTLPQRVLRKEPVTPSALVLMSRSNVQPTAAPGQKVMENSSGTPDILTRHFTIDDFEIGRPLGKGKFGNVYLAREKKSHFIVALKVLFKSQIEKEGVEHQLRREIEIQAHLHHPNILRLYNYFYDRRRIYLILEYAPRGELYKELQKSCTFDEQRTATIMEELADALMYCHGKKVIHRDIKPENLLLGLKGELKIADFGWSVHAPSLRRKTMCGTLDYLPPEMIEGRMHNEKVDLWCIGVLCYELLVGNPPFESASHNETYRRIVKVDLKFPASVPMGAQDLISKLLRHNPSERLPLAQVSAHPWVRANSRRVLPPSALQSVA
Homeodomain-interacting protein kinase 2 (Homo sapiens), sequence (Q9H2X6 whole entry, looked up): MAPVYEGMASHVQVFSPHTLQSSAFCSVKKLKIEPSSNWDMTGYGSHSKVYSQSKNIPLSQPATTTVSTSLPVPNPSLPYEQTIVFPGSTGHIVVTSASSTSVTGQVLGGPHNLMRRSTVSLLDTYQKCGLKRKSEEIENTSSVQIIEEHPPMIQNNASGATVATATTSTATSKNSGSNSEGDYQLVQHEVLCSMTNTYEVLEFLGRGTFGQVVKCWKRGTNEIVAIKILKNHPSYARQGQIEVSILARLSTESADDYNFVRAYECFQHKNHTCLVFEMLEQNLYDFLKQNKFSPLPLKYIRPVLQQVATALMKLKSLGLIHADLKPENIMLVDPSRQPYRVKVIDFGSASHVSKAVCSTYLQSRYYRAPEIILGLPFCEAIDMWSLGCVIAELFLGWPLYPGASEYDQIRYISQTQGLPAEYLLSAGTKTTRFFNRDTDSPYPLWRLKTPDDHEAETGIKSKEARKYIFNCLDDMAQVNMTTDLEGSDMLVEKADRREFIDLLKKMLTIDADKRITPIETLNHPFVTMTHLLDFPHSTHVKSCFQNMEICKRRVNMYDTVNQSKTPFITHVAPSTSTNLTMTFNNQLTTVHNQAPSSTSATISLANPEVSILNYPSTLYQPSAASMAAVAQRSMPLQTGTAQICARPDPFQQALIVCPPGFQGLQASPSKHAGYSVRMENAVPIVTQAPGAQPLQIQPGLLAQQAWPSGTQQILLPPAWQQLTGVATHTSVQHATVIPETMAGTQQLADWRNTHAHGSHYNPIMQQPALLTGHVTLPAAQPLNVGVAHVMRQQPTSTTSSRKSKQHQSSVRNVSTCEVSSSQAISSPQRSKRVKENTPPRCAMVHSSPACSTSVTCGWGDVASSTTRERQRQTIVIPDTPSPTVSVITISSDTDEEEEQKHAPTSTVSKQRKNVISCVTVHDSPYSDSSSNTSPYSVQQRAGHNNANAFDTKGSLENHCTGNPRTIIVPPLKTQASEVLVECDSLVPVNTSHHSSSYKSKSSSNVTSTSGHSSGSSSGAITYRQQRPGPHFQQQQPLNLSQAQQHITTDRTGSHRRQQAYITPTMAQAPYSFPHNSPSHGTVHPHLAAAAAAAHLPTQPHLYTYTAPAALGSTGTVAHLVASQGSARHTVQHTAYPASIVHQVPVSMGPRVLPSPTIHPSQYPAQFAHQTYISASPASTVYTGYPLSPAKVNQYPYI

The inhibition is the relative decrease from the control value, in per cent. As a reminder, the residual activity is the signal under treatment as a percentage of the control signal. Consider `C[C@@H](N)[C@H]1CC[C@H](C(=O)Nc2ccncc2)CC1`, for which the inhibition in assay [1] amounted to 91%. Further, the residual activity is 105% in assay [2]; 90% in assay [3]; 69% in assay [4]; 104% in assay [5]; 79% in assay [6].
For the compound `CCn1c(-c2nonc2N)nc2cnc(Oc3cccc(NC(=O)c4ccc(OCCN5CCOCC5)cc4)c3)cc21` [GSK-269962A], the inhibition in [7] is 61%. For the same compound, the residual activity in assay [8] worked out at 69%.
For `CC1=C(C(=O)Nc2cc3cn[nH]c3cc2F)C(c2ccc(C(F)(F)F)cc2)CC(=O)N1` (stereo not given), the inhibition in [7] worked out at 106%. The residual activity in assay [9] amounted to 97%; in [8] it was 83%; in [10], 117%.
Consider `O=S(=O)(c1cccc2cnccc12)N1CCCNCC1` [FASUDIL], for which, in assay [1], the inhibition came to 86%. For the same compound, the residual activity amounted to 70% in [2]; 120% in [3]; 110% in assay [4]; 127% in [5]; 51% in assay [6].
Regarding `Cc1cncc2cccc(S(=O)(=O)N3CCCNC[C@@H]3C)c12`, in assay [10], the residual activity amounted to 82%.
As for `CCN(CC)CCNC(=O)c1c(C)[nH]c(/C=C2\C(=O)Nc3ccc(F)cc32)c1C`, in assay [9], the residual activity turned out to be 2%.
